Test results reported in patent publication US20170239249A1, “QUINAZOLINE-BASED KINASE INHIBITORS” (Bristol-Myers Squibb Company, priority 2014, published 2017).

target: AAK1 (full length human) (Homo sapiens, UniProt Q2M2I8); experiment: HEK281 Cell-Based Assay (phospho-mu2 Western blot in HEK293F cells transfected with AAK1 and AP2M1); conditions: IC50 (nM), functional potency; inhibition of mu2 phosphorylation in HEK293F cells, 3 hours incubation, 5 concentrations
Sequence (Q2M2I8 1-863 isoform Q2M2I8-2): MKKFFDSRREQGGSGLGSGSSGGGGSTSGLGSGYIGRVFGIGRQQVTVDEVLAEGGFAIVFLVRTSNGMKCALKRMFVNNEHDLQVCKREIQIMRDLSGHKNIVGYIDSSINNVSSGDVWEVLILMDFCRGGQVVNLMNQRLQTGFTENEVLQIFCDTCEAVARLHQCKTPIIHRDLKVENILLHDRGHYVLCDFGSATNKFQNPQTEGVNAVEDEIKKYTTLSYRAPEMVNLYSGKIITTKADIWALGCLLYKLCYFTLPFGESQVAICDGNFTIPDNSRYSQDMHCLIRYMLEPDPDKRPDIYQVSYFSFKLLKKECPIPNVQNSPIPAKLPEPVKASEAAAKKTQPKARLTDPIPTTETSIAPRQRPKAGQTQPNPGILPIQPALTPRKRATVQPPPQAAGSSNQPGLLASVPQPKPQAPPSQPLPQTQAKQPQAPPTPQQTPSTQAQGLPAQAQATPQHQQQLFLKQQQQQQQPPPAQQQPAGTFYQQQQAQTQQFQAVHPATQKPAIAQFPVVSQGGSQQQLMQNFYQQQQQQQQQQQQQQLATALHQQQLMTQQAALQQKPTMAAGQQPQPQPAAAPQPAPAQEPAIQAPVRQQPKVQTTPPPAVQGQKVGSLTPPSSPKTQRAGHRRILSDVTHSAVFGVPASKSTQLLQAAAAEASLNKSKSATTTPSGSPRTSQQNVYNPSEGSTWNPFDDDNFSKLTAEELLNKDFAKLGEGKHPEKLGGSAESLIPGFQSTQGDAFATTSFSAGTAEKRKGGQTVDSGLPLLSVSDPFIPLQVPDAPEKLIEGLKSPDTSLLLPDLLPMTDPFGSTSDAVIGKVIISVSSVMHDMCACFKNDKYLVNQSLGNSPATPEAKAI

| IC50 [nM] | Structure (SMILES) |
| --- | --- |
| 140 | CC(C)CC(N)c1nc2ccc(-c3cnco3)cc2c(=O)[nH]1 (centres unmarked) [Example 12, 2-(1-Amino-3-methylbutyl)-6-(oxazol-5-yl)quinazolin-4-ol] |
| 44 | CC(C)CC(N)c1nc(N2CCC2)c2cc(-c3ccncc3)ccc2n1 (centres unmarked) [Example 73, 1-(4-(Azetidin-1-yl)-6-(pyridin-4-yl)quinazolin-2-yl)-3-methylbutan-1-amine] |
| 812 | CC(C)CCc1nc(N2CCC2)c2cc(-c3cnco3)ccc2n1 [Example 83, 5-(4-(Azetidin-1-yl)-2-isopentylquinazolin-6-yl)oxazole] |
| 1200 | CC(C)CC(N)c1nc(NCCO)c2cc(-c3cnco3)ccc2n1 (centres unmarked) [Example 21, 2-((2-(1-Amino-3-methylbutyl)-6-(oxazol-5-yl)quinazolin-4-yl)amino)ethanol] |
| 3460 | COCCNc1nc(CCC(C)C)nc2ccc(-c3cnco3)cc12 [Example 77, 2-Isopentyl-N-(2-methoxyethyl)-6-(oxazol-5-yl)quinazolin-4-amine] |
| 3320 | CC(C)CCc1nc(NCCCN(C)C)c2cc(-c3cnco3)ccc2n1 [Example 80, N^1-(2-Isopentyl-6-(oxazol-5-yl)quinazolin-4-yl)-N^3,N^3-dimethylpropane-1,3-diamine] |
| 5 | CC(C)CCc1nc2ccc(-c3cnco3)cc2c(=S)[nH]1 [Example 56, 2-Isopentyl-6-(oxazol-5-yl)quinazoline-4(3H)-thione] |
| 301 | CC(C)CCc1nc(NCCO)c2cc(-c3ccncc3)ccc2n1 [Example 50, 2-(2-Isopentyl-6-(pyridin-4-yl)quinazolin-4-ylamino)ethanol] |
| 1010 | COc1nc(CCC(C)C)nc2ccc(-c3cn[nH]c3)cc12 [Example 37, 2-Isopentyl-4-methoxy-6-(1H-pyrazol-4-yl)quinazoline] |
| 6600 | Cc1cnc(CNc2nc(CCC(C)C)nc3ccc(-c4cnco4)cc23)cn1 [Example 79] |

The next lines start with the molecule.

| Structure (SMILES) | IC50 [nM] |
| --- | --- |
| CC(C)CCc1nc2ccc(-c3ccncc3)cc2c(=O)[nH]1 [Example 49, 2-Isopentyl-6-(pyridin-4-yl)quinazolin-4(3H)-one] | 54 |
| CCc1nc(C(N)CC(C)C)nc2ccc(-c3cn[nH]c3)cc12 (centres unmarked) [Example 63, 1-(4-Ethyl-6-(1H-pyrazol-4-yl)quinazolin-2-yl)-3-methylbutan-1-amine] | 28 |
| CCc1nc(C(C)CC(C)C)nc2ccc(-c3ccncc3)cc12 (centres unmarked) [Example 65, 4-Ethyl-2-(4-methylpentan-2-yl)-6-(pyridin-4-yl)quinazoline] | 223 |
| CCc1nc(C(C)CC(C)C)nc2ccc(-c3ccnc(NC(C)=O)c3)cc12 (centres unmarked) [Example 66, N-(4-(4-Ethyl-2-(4-methylpentan-2-yl)quinazolin-6-yl)pyridin-2-yl)acetamide] | 258 |
| CCc1nc(C(N)CC(C)C)nc2cc(OC)c(-c3ccncc3)cc12 (centres unmarked) [Example 88, 1-(4-Ethyl-7-methoxy-6-(pyridin-4-yl)quinazolin-2-yl)-3-methylbutan-1-amine] | 932 |
| CNc1nc(C(N)CC(C)C)nc2ccc(-c3ccncc3)cc12 (centres unmarked) [Example 23, 2-(1-Amino-3-methylbutyl)-N-methyl-6-(pyridin-4-yl)quinazolin-4-amine] | 79 |
| CCc1nc([C@H](N)CC2CC2)nc2ccc(-c3ccncc3)cc12 [Example 70, (R)-2-Cyclopropyl-1-(4-ethyl-6-(pyridin-4-yl)quinazolin-2-yl)ethanamine] | 126 |
| COc1cc2nc([C@H](N)CC(C)C)ncc2cc1-c1cnco1 [Example 36, (R)-1-(7-Methoxy-6-(oxazol-5-yl)quinazolin-2-yl)-3-methylbutan-1-amine] | 113 |
| CCc1nc(C(N)CC2CCCCC2)nc2ccc(-c3ccncc3)cc12 (centres unmarked) [Example 9, 2-Cyclohexyl-1-(4-ethyl-6-(pyridin-4-yl)quinazolin-2-yl)ethanamine] | 260 |
| CCc1nc(C(N)CC(C)C)nc2ccc(-c3ccncc3)cc12 (centres unmarked) [Example 62, 1-(4-Ethyl-6-(pyridin-4-yl)quinazolin-2-yl)-3-methylbutan-1-amine] | 37 |
